Source: the supplement of paper PMC10307832

Legend:
Assay in all cases: relative viability (nuclei count vs DMSO), 5 days (fraction); higher = more cells survive
[1] = compound: C1=CC=C(C(=C1)C2=CC=C(C=C2)C3=CSC4=C3C(=C(C(=O)N4)C#N)O)O + CC(=O)c1c(C)c2cnc(Nc3ccc(N4CCNCC4)cn3)nc2n(C2CCCC2)c1=O [Palbociclib] (partner 0.5 µM)
Summary of the method: (§1)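 Relative viability was taken as the ratio of nuclei in treated wells to nuclei in vehicle wells. Lung cancer cell lines in 1536-well plates received compounds by pin tool one day after seeding, either one drug alone or a fixed anchor-drug dose plus five library-drug doses (not always all listed) in √10 steps. Nuclei were counted on 4× images after 5 days of treatment, and values are medians of duplicate plates.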

[2] = compound: C1=CC=C(C(=C1)C2=CC=C(C=C2)C3=CSC4=C3C(=C(C(=O)N4)C#N)O)O + CC(C)C[C@H](NC(=O)[C@H](Cc1ccccc1)NC(=O)c1cnccn1)B(O)O [Bortezomib] (partner 0.002 µM)
Summary of the method: as §1

TGX 221 + Trametinib = compound: CC1=CN2C(=O)C=C(N=C2C(=C1)C(C)NC3=CC=CC=C3)N4CCOCC4 [TGX 221] + CC(=O)Nc1cccc(-n2c(=O)n(C3CC3)c(=O)c3c(Nc4ccc(I)cc4F)n(C)c(=O)c(C)c32)c1 [Trametinib] (partner 0.02 µM)
Summary of the method: as §1

TGX 221 + Luminespib = compound: CC1=CN2C(=O)C=C(N=C2C(=C1)C(C)NC3=CC=CC=C3)N4CCOCC4 [TGX 221] + CCNC(=O)c1noc(-c2cc(C(C)C)c(O)cc2O)c1-c1ccc(CN2CCOCC2)cc1 [Luminespib] (partner 0.01 µM)
Summary of the method: as §1

NCI-H1792
relative viability ([1]; first compound 0.253 µM): 0.65 | relative viability ([1]; first compound 2.53 µM): 0.895 | relative viability ([1]; first compound 8 µM): 0.355 | relative viability ([2]; first compound 0.253 µM): 0.866 | relative viability ([2]; first compound 0.8 µM): 1.1 | relative viability ([2]; first compound 2.53 µM): 1.03 | relative viability ([2]; first compound 8 µM): 0.425 | relative viability (TGX 221 + Trametinib; first compound 0.08 µM): 0.436 | relative viability (TGX 221 + Trametinib; first compound 0.253 µM): 0.414 | relative viability (TGX 221 + Trametinib; first compound 0.8 µM): 0.366 | relative viability (TGX 221 + Trametinib; first compound 2.53 µM): 0.277 | relative viability (TGX 221 + Trametinib; first compound 8 µM): 0.313 | relative viability (TGX 221 + Luminespib; first compound 0.08 µM): 0.52 | relative viability (TGX 221 + Luminespib; first compound 0.253 µM): 0.498 | relative viability (TGX 221 + Luminespib; first compound 0.8 µM): 0.418 | relative viability (TGX 221 + Luminespib; first compound 2.53 µM): 0.375 | relative viability (TGX 221 + Luminespib; first compound 8 µM): 0.293
